# Assay results reported in patent publication US11083725B2 (priority 2014, dated 2021).
# Test system: NHBE cells
# Experiment: Biolog metabolic array: substrate use by NHBE cells with or without CA09 infection
# Type: cell-based, human
# Details: for Substrate use, 590 nm absorbance normalized to zero hour, 0 hr: Biolog PMM2, 0 hr; for Substrate use, 590 nm absorbance normalized to zero hour, 1 hr: Biolog PMM2, 1 hr; for Substrate use, 590 nm absorbance normalized to zero hour, 5 hr: Biolog PMM2, 5 hr; for Substrate use, 590 nm absorbance normalized to zero hour, 7 hr: Biolog PMM2, 7 hr
# [1] = Control (uninfected) NHBE cells
# [2] = Virus (CA09-infected, MOI 1) NHBE cells
# [3] = Virus: CA09-infected NHBE cells, MOI 1, Biolog PMM2
Structure (SMILES),"590 nm absorbance normalized to zero hour (substrate use), 1 hr [1]","590 nm absorbance normalized to zero hour (substrate use), 2 hr [1]","590 nm absorbance normalized to zero hour (substrate use), 3 hr [1]","590 nm absorbance normalized to zero hour (substrate use), 4 hr [1]","590 nm absorbance normalized to zero hour (substrate use), 6 hr [1]","590 nm absorbance normalized to zero hour (substrate use), 8 hr [1]","590 nm absorbance normalized to zero hour (substrate use), 9 hr [1]","590 nm absorbance normalized to zero hour (substrate use), 10 hr [1]","590 nm absorbance normalized to zero hour (substrate use), 11 hr [1]","Substrate use, 590 nm absorbance normalized to zero hour, 1 hr [1]","Substrate use, 590 nm absorbance normalized to zero hour, 5 hr [1]","Substrate use, 590 nm absorbance normalized to zero hour, 7 hr [1]","590 nm absorbance normalized to zero hour (substrate use), 1 hr [2]","590 nm absorbance normalized to zero hour (substrate use), 2 hr [2]","590 nm absorbance normalized to zero hour (substrate use), 3 hr [2]","590 nm absorbance normalized to zero hour (substrate use), 4 hr [2]","590 nm absorbance normalized to zero hour (substrate use), 5 hr [2]","590 nm absorbance normalized to zero hour (substrate use), 6 hr [2]","590 nm absorbance normalized to zero hour (substrate use), 7 hr [2]","590 nm absorbance normalized to zero hour (substrate use), 8 hr [2]",other results
OC[C@H]1O[C@H](OC[C@H]2O[C@H](O[C@]3(CO)O[C@H](CO)[C@@H](O)[C@@H]3O)[C@H](O)[C@@H](O)[C@@H]2O)[C@H](O)[C@@H](O)[C@H]1O [D-Raffinose],1.09,1.11,1.37,1.53,0.75,1.82,1.82,2.00,2.15,1.09,1.75,1.71,0.68,0.59,0.55,0.49,1.98,0.54,1.92,1.77,"590 nm absorbance normalized to zero hour (substrate use), 0 hr [1]: 1.00; Substrate use, 590 nm absorbance normalized to zero hour, 0 hr [1]: 1.00; 590 nm absorbance normalized to zero hour (substrate use), 0 hr [2]: 1.00; 590 nm absorbance normalized to zero hour (substrate use), 9 hr [2]: 1.74; 590 nm absorbance normalized to zero hour (substrate use), 10 hr [2]: 1.15; 590 nm absorbance normalized to zero hour (substrate use), 11 hr [2]: 1.53; 590 nm absorbance normalized to zero hour (substrate use), 0 hr [3]: 1.00; 590 nm absorbance normalized to zero hour (substrate use), 1 hr [3]: 0.68; 590 nm absorbance normalized to zero hour (substrate use), 2 hr [3]: 0.59; 590 nm absorbance normalized to zero hour (substrate use), 3 hr [3]: 0.55; 590 nm absorbance normalized to zero hour (substrate use), 4 hr [3]: 0.49; 590 nm absorbance normalized to zero hour (substrate use), 5 hr [3]: 1.98; 590 nm absorbance normalized to zero hour (substrate use), 6 hr [3]: 0.54; 590 nm absorbance normalized to zero hour (substrate use), 7 hr [3]: 1.92; 590 nm absorbance normalized to zero hour (substrate use), 8 hr [3]: 1.77; 590 nm absorbance normalized to zero hour (substrate use), 9 hr [3]: 1.74; 590 nm absorbance normalized to zero hour (substrate use), 10 hr [3]: 1.15; 590 nm absorbance normalized to zero hour (substrate use), 11 hr [3]: 1.53"
OC[C@@H](O)[C@@H](O)[C@H](O)[C@@H](O)CO [D-Sorbitol],2.10,2.97,3.57,3.84,4.81,5.56,6.08,6.47,6.92,2.10,4.59,5.29,1.80,2.63,3.10,3.35,4.00,4.37,4.63,4.94,"590 nm absorbance normalized to zero hour (substrate use), 9 hr [2]: 5.39; 590 nm absorbance normalized to zero hour (substrate use), 10 hr [2]: 5.64; 590 nm absorbance normalized to zero hour (substrate use), 11 hr [2]: 6.18; 590 nm absorbance normalized to zero hour (substrate use), 1 hr [3]: 1.80; 590 nm absorbance normalized to zero hour (substrate use), 2 hr [3]: 2.63; 590 nm absorbance normalized to zero hour (substrate use), 3 hr [3]: 3.10; 590 nm absorbance normalized to zero hour (substrate use), 4 hr [3]: 3.35; 590 nm absorbance normalized to zero hour (substrate use), 5 hr [3]: 4.00; 590 nm absorbance normalized to zero hour (substrate use), 6 hr [3]: 4.37; 590 nm absorbance normalized to zero hour (substrate use), 7 hr [3]: 4.63; 590 nm absorbance normalized to zero hour (substrate use), 8 hr [3]: 4.94; 590 nm absorbance normalized to zero hour (substrate use), 9 hr [3]: 5.39; 590 nm absorbance normalized to zero hour (substrate use), 10 hr [3]: 5.64; 590 nm absorbance normalized to zero hour (substrate use), 11 hr [3]: 6.18"
O=C(CO)[C@@H](O)[C@@H](O)[C@H](O)CO [D-Tagatose],1.07,1.01,0.88,0.28,0.49,0.34,0.36,0.37,0.39,1.07,0.29,0.32,0.17,0.24,0.28,0.30,0.36,0.39,0.42,0.44,"590 nm absorbance normalized to zero hour (substrate use), 9 hr [2]: 0.49; 590 nm absorbance normalized to zero hour (substrate use), 10 hr [2]: 0.51; 590 nm absorbance normalized to zero hour (substrate use), 1 hr [3]: 0.17; 590 nm absorbance normalized to zero hour (substrate use), 2 hr [3]: 0.24; 590 nm absorbance normalized to zero hour (substrate use), 3 hr [3]: 0.28; 590 nm absorbance normalized to zero hour (substrate use), 4 hr [3]: 0.30; 590 nm absorbance normalized to zero hour (substrate use), 5 hr [3]: 0.36; 590 nm absorbance normalized to zero hour (substrate use), 6 hr [3]: 0.39; 590 nm absorbance normalized to zero hour (substrate use), 7 hr [3]: 0.42; 590 nm absorbance normalized to zero hour (substrate use), 8 hr [3]: 0.44; 590 nm absorbance normalized to zero hour (substrate use), 9 hr [3]: 0.49; 590 nm absorbance normalized to zero hour (substrate use), 10 hr [3]: 0.51; 590 nm absorbance normalized to zero hour (substrate use), 11 hr [3]: 0.48"
OC[C@H]1O[C@H](O[C@H]2O[C@H](CO)[C@@H](O)[C@H](O)[C@H]2O)[C@H](O)[C@@H](O)[C@@H]1O [D-Trehalose],1.68,2.24,2.70,2.88,3.69,4.74,5.11,4.09,4.60,1.68,3.48,4.20,1.66,2.04,2.20,2.27,2.52,2.66,2.79,2.93,"590 nm absorbance normalized to zero hour (substrate use), 0 hr [1]: 1.00; Substrate use, 590 nm absorbance normalized to zero hour, 0 hr [1]: 1.00; 590 nm absorbance normalized to zero hour (substrate use), 0 hr [2]: 1.00; 590 nm absorbance normalized to zero hour (substrate use), 9 hr [2]: 3.11; 590 nm absorbance normalized to zero hour (substrate use), 10 hr [2]: 3.25; 590 nm absorbance normalized to zero hour (substrate use), 11 hr [2]: 3.07; 590 nm absorbance normalized to zero hour (substrate use), 0 hr [3]: 1.00; 590 nm absorbance normalized to zero hour (substrate use), 1 hr [3]: 1.66; 590 nm absorbance normalized to zero hour (substrate use), 2 hr [3]: 2.04; 590 nm absorbance normalized to zero hour (substrate use), 3 hr [3]: 2.20; 590 nm absorbance normalized to zero hour (substrate use), 4 hr [3]: 2.27; 590 nm absorbance normalized to zero hour (substrate use), 5 hr [3]: 2.52; 590 nm absorbance normalized to zero hour (substrate use), 6 hr [3]: 2.66; 590 nm absorbance normalized to zero hour (substrate use), 7 hr [3]: 2.79; 590 nm absorbance normalized to zero hour (substrate use), 8 hr [3]: 2.93; 590 nm absorbance normalized to zero hour (substrate use), 9 hr [3]: 3.11; 590 nm absorbance normalized to zero hour (substrate use), 10 hr [3]: 3.25; 590 nm absorbance normalized to zero hour (substrate use), 11 hr [3]: 3.07"
